Experimental data reported in ChEMBL document CHEMBL3407465, “Interaction of human organic anion transporter polypeptides 1B1 and 1B3 with antineoplastic compounds” (Eur J Med Chem, 2015).

Tests used:
[1] = biological target: T1, Solute carrier organic anion transporter family member 1B3 (Homo sapiens, UniProt Q9NPD5); test: Inhibition of human OATP1B3-mediated [3H]CCK-8 at 100 uM after 5 mins relative to control; assay type: ADME
T1 sequence (Q9NPD5 whole entry): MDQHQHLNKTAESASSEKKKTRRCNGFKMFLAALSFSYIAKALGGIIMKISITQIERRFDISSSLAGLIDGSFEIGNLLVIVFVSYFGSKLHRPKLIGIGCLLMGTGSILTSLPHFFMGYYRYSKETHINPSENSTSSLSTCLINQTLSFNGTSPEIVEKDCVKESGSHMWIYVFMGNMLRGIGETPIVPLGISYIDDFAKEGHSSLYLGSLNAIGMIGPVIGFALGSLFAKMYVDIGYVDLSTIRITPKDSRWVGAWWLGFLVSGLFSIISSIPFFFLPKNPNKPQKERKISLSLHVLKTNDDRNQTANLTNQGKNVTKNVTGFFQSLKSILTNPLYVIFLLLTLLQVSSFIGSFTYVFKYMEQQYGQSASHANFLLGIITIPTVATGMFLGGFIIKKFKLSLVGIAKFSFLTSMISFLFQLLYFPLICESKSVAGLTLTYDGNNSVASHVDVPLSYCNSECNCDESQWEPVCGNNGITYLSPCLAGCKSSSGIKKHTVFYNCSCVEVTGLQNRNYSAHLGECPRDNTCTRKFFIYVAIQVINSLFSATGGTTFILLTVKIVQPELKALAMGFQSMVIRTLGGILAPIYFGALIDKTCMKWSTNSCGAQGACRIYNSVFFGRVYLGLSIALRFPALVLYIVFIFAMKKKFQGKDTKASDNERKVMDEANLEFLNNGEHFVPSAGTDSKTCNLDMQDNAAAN

[2] = biological target: T1, Solute carrier organic anion transporter family member 1B3; test: Inhibition of human OATP1B3-mediated [3H]CCK-8 after 5 mins by Dixon plot method; assay type: ADME
[3] = biological target: T2, Solute carrier organic anion transporter family member 1B1 (Homo sapiens, UniProt Q9Y6L6); test: Stimulation of human OATP1B1-mediated [3H]estrone 3-sulfate at 100 uM after 5 mins relative to control; assay type: ADME
T2 sequence (Q9Y6L6 whole entry): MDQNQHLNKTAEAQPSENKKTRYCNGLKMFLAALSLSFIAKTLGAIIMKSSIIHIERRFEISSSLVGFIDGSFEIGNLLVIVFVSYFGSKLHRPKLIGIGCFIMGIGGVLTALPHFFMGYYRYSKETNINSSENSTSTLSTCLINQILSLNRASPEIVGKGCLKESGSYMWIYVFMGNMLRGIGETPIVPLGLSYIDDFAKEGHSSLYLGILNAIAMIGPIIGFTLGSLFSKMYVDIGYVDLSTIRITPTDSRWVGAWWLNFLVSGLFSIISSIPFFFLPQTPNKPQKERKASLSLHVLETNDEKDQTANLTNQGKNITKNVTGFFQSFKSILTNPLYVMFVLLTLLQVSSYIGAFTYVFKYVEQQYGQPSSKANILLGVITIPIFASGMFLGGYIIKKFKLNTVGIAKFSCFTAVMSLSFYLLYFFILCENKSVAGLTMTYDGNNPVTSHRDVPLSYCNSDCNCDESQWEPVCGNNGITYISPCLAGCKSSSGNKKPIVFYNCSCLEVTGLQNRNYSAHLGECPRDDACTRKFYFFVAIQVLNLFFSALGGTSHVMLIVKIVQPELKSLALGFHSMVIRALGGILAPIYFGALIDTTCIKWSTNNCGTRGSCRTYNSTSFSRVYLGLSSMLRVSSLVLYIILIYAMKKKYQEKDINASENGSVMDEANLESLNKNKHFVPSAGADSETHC

[4] = biological target: T1, Solute carrier organic anion transporter family member 1B3; test: Stimulation of human OATP1B3-mediated [3H]CCK-8 at 100 uM after 5 mins relative to control; assay type: ADME
[5] = biological target: T2, Solute carrier organic anion transporter family member 1B1; test: Inhibition of human OATP1B1-mediated [3H]estrone 3-sulfate at 100 uM after 5 mins relative to control; assay type: ADME
OATP1B3 = biological target: T3, OATP1B3 (Homo sapiens, UniProt Q9NPD5); test: Inhibition of OATP1B3 (unknown origin)-mediated sodium fluorescein expressed in CHO cells at 10 uM; assay type: ADME, cell-based; settings: CHO cells expressing OATP1B3, probe sodium fluorescein
T3 sequence (Q9NPD5 whole entry): T1 sequence (Q9NPD5 whole entry)

[6] = biological target: T2, Solute carrier organic anion transporter family member 1B1; test: Inhibition of human OATP1B1-mediated [3H]estrone 3-sulfate at after 5 mins by Dixon plot method; assay type: ADME

SMILES: O=C(O)CCCc1ccc(N(CCCl)CCCl)cc1 [CHLORAMBUCIL]
- inhibition (INH) [1]: 66%
- IC50 [2]: 80.7 µM
- Ki [2]: 37.4 µM
- Activity [3]: 18.8%

SMILES: CN(Cc1cnc2nc(N)nc(N)c2n1)c1ccc(C(=O)N[C@@H](CCC(=O)O)C(=O)O)cc1 [METHOTREXATE]
- Activity [4]: 12%

SMILES: Cn1c(CCCC(=O)O)nc2cc(N(CCCl)CCCl)ccc21 [BENDAMUSTINE]
- inhibition (INH) [1]: 48.8%

SMILES: Nc1nc(Cl)nc2c1ncn2[C@H]1C[C@H](O)[C@@H](CO)O1 [CLADRIBINE]
- Activity [4]: 10%
- Activity [3]: 15.9%

SMILES: Nc1ccn([C@@H]2O[C@H](CO)[C@@H](O)C2(F)F)c(=O)n1 [GEMCITABINE]
- Activity [4]: 11.1%

SMILES: O=P1(N(CCCl)CCCl)NCCCO1 (centres undefined) [CYCLOPHOSPHAMIDE ANHYDROUS]
- Activity [4]: 8.7%
- Activity [3]: 5.6%

SMILES: COc1cccc2c1C(=O)c1c(O)c3c(c(O)c1C2=O)C[C@@](O)(C(=O)CO)C[C@@H]3O[C@H]1C[C@H](N)[C@H](O)[C@H](C)O1 [DOXORUBICIN]
- inhibition (INH) [1]: 53.6%
- inhibition (INH) [5]: 12%

SMILES: C[C@]12C=CC(=O)C=C1CC[C@@H]1[C@@H]2C(=O)C[C@@]2(C)[C@H]1CC[C@]2(O)C(=O)CO [PREDNISONE]
- inhibition (INH) [1]: 12.5%
- inhibition (INH) [5]: 9.8%

SMILES: O=P1(NCCCl)OCCCN1CCCl (centres undefined) [IFOSFAMIDE]
- Activity [3]: 7.4%

SMILES: Nc1nc(F)nc2c1ncn2[C@@H]1O[C@H](CO)[C@@H](O)[C@@H]1O [FLUDARABINE]
- Activity [4]: 12%

SMILES: CC(=O)O[C@H]1C(=O)[C@@]2(C)[C@H]([C@H](OC(=O)c3ccccc3)[C@]3(O)C[C@H](OC(=O)[C@H](O)[C@@H](NC(=O)c4ccccc4)c4ccccc4)C(C)=C1C3(C)C)[C@]1(OC(C)=O)CO[C@@H]1C[C@@H]2O [PACLITAXEL]
- inhibition (INH) [1]: 94.4%
- IC50 [2]: 0.26 µM
- Ki [2]: 1.8 µM
- inhibition at 10 µM (OATP1B3): 52.9%

SMILES: CCc1c2c(nc3ccc(OC(=O)N4CCC(N5CCCCC5)CC4)cc13)-c1cc3c(c(=O)n1C2)COC(=O)[C@]3(O)CC [IRINOTECAN]
- inhibition (INH) [1]: 34.3%
- Activity [3]: 93.3%

SMILES: Nc1ccn([C@@H]2O[C@H](CO)[C@@H](O)[C@@H]2O)c(=O)n1 [CYTARABINE]
- Activity [4]: 17.7%

SMILES: CC[C@]1(O)C[C@@H]2CN(CCc3c([nH]c4ccccc34)[C@@](C(=O)OC)(c3cc4c(cc3OC)N(C)[C@H]3[C@@](O)(C(=O)OC)[C@H](OC(C)=O)[C@]5(CC)C=CCN6CC[C@]43[C@@H]65)C2)C1 [VINBLASTINE]
- inhibition (INH) [1]: 81.5%
- IC50 [2]: 43.5 µM
- Ki [2]: 18.6 µM
- inhibition (INH) [5]: 64.1%
- IC50 [6]: 46.8 µM
- Ki [6]: 10.2 µM

SMILES: O=C1c2c(O)ccc(O)c2C(=O)c2c(NCCNCCO)ccc(NCCNCCO)c21 [MITOXANTRONE]
- inhibition (INH) [1]: 84.4%
- IC50 [2]: 3.39 µM
- Ki [2]: 3.1 µM
- inhibition (INH) [5]: 18.9%

SMILES: S=P(N1CC1)(N1CC1)N1CC1 [THIOTEPA]
- Activity [3]: 11.9%

SMILES: CC[C@]1(O)C[C@H]2CN(CCc3c([nH]c4ccccc34)[C@@](C(=O)OC)(c3cc4c(cc3OC)N(C=O)[C@H]3[C@@](O)(C(=O)OC)[C@H](OC(C)=O)[C@]5(CC)C=CCN6CC[C@]43[C@@H]65)C2)C1 [VINCRISTINE]
- inhibition (INH) [1]: 65.1%
- IC50 [2]: 36.8 µM
- Ki [2]: 17.6 µM
- inhibition (INH) [5]: 28.1%
